ChEMBL document CHEMBL1141495, “Isoindol-1,3-dione and isoindol-1-one derivatives with high binding affinity to beta-amyloid fibrils” (Bioorg Med Chem Lett, 2008)

Assay: Displacement of [125I]TZDM from beta amyloid 42 fibril

Structure (SMILES) | Ki [pM]
COc1ccc2c(c1)C(=O)N(c1ccc(N(C)C)cc1)C2=O | 710
CN(C)c1ccc(N2C(=O)c3ccccc3C2=O)cc1 | 690
CN(C)c1ccc(N2C(=O)c3ccc(F)cc3C2=O)cc1 | 560
CN(C)c1ccc(N2Cc3cc(F)ccc3C2=O)cc1 | 490
CN(C)c1ccc(N2Cc3cc(Cl)ccc3C2=O)cc1 | 760
CN(C)c1ccc(N2C(=O)c3ccc(N(C)C)cc3C2=O)cc1 | 700
CN(C)c1cccc(N2Cc3ccccc3C2=O)c1 | 570
CN(C)c1cccc(N2C(=O)c3ccccc3C2=O)c1 | 460
COc1ccc(N2C(=O)c3ccccc3C2=O)cc1N(C)C | 440
CN(C)c1ccc(N2Cc3ccccc3C2=O)cc1 | 580
CN(C)c1ccc(N2Cc3cc(Br)ccc3C2=O)cc1 | 810
Cc1ccc2c(c1)C(=O)N(c1ccc(N(C)C)cc1)C2=O | 500
CC(C(=O)O)c1ccc(N2Cc3ccccc3C2=O)cc1 (stereo not given) [INDOPROFEN] | 520
CNc1ccc(-c2nc3ccc(O)cc3s2)cc1 [PITTSBURGH COMPOUND B UNLABELLED] | 700

Results, then the compound that gave them:

Ki [pM] | Structure (SMILES)
660 | COc1cc(N2C(=O)c3ccccc3C2=O)ccc1N(C)C
780 | COc1cc(N2C(=O)c3ccc(F)cc3C2=O)ccc1N(C)C
420 | COc1cc(N2C(=O)c3ccc(Br)cc3C2=O)ccc1N(C)C
940 | COc1ccc2c(c1)CN(c1ccc(N(C)C)cc1)C2=O
760 | Cc1ccc2c(c1)C(=O)N(c1ccc(N(C)C)cc1)C2
500 | CN(C)c1ccc(N2Cc3ccc(Cl)cc3C2=O)cc1
900 | COc1cc(N2Cc3ccccc3C2=O)ccc1N(C)C
650 | COc1ccc(N2Cc3ccccc3C2=O)cc1N(C)C
930 | CN(C)c1ccc(N2Cc3ccc(F)cc3C2=O)cc1
460 | COc1cc(N2Cc3ccc(C)cc3C2=O)ccc1N(C)C
700 | COc1cc(N2C(=O)c3ccc(Cl)cc3C2=O)ccc1N(C)C
